Measured values from ChEMBL document CHEMBL1138679, “Three-dimensional quantitative structure-activity relationship analysis of a set of Plasmodium falciparum dihydrofolate reductase inhibitors using a pharmacophore generation approach” (J Med Chem, 2004).

target: Bifunctional dihydrofolate reductase-thymidylate synthase (Plasmodium falciparum K1, UniProt P13922); experiment: Inhibition constant against Plasmodium falciparum dihydrofolate reductase
Sequence (P13922 whole entry): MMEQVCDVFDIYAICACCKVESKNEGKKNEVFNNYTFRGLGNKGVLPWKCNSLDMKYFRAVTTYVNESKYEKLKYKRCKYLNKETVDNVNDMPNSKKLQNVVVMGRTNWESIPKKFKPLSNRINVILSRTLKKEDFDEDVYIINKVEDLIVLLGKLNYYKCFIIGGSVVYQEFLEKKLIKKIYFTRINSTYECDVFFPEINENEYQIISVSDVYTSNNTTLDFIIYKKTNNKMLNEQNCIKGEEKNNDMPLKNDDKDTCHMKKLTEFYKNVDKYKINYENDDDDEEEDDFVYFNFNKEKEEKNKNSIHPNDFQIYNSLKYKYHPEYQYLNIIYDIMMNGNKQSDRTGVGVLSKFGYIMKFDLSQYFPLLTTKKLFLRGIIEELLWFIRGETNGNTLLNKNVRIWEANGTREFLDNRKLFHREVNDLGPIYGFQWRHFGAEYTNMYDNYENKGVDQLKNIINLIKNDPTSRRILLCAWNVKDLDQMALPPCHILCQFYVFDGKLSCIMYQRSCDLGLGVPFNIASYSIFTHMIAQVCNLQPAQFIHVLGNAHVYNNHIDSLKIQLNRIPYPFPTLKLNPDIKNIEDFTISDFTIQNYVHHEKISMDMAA

| Structure (SMILES) | Ki [nM] |
| --- | --- |
| CC1(C)N=C(N)N=C(N)N1c1ccc(Cl)cc1 [CYCLOGUANIL] | 1.1 |
| Nc1ncc(-c2ccc(Cl)cc2)c(N)n1 | 0.74 |
| N/C(=N\O)c1cccc(CS(=O)(=O)c2ccc(Cl)cc2)c1 | 800 |
| CCc1nc(N)nc(N)c1-c1ccc(Br)cc1 | 0.84 |
| NC(=S)N/N=C/c1ccccc1 [PHENYLTHIOSEMICARBAZONE] | 31000 |
| Cc1nc(N)nc(N)c1-c1ccc(Cl)cc1 | 0.84 |
| CCCCCCc1nc(N)nc(N)c1-c1ccccc1 | 10 |
| CCc1nc(N)nc(N)c1-c1cccc(OC)c1 | 36 |
| Cc1nc(N)nc(N)c1-c1cccc(Cl)c1 | 83 |
| CCc1nc(N)nc(N)c1-c1ccc(OCc2ccc(Cl)cc2Cl)c(OC)c1 | 9.6 |
| Nc1nc(N)c(-c2cccc(Cl)c2)c(CCCc2ccccc2)n1 | 42 |
| COC(=O)CCCc1nc(N)nc(N)c1-c1ccccc1 | 10 |
| COC(=O)CCCc1nc(N)nc(N)c1-c1ccc(Cl)cc1 | 0.14 |
| NC1=NCN(c2ccc(F)cc2)C(N)=N1 | 88 |
| Nc1nc(N)c(-c2cccc(Cl)c2)c(CCOCCCOc2ccccc2)n1 | 13 |
| Cc1cc2nc3n(c2cc1C)C(C)(C)NC(N)=N3 | 180 |
| NC1=NCN(c2ccc(Cl)cc2)C(N)=N1 | 0.84 |
| NNc1nc2ccccc2nc1NN | 8600 |
| N=C(NO)c1ccc(Oc2cc(Cl)cc(Cl)c2)c([N+](=O)[O-])c1 | 1700 |
| CCc1nc(N)nc(N)c1-c1ccc2c(c1)OCO2 | 72 |
| Nc1ncc(-c2cccc(Cl)c2)c(N)n1 | 75 |
| C=CCNC(=S)NNC(=O)c1cccn(Cc2cccc(Cl)c2)c1=O | 410 |
| CCc1nc(N)nc(N)c1-c1ccc(-c2ccccc2)cc1 | 90 |
| CCc1nc(N)nc(N)c1-c1ccc(OC)cc1 | 1.3 |
| N=C(NO)c1ccc(CNC(=O)c2ccc(Cl)cc2)cc1 | 1500 |

| Structure (SMILES) | Ki [nM] |
| --- | --- |
| CC1(C)N=C(N)N=C(N)N1c1ccccc1 | 140 |
| C/C(=N\N=C(/N)S)c1ccc(Oc2c(Cl)cncc2Cl)cc1 | 1400 |
| CC1(C)N=C(N)N=C(N)N1c1ccc(Br)cc1 | 1.2 |
| CCc1nc(N)nc(N)c1-c1ccc(C)cc1 | 1.1 |
| N=C(S)N/N=C/c1ccc(Oc2ncc(C(F)(F)F)cc2Cl)cc1 | 9000 |
| CCc1nc(N)nc(N)c1-c1cccc(Cl)c1 | 72 |
| N/C(=N/O)c1ccc(Oc2c(Cl)cncc2Cl)cc1 | 930 |
| CCc1nc(N)nc(N)c1-c1ccc(Cl)cc1Cl | 0.92 |
| COc1ccc(CCCc2nc(N)nc(N)c2-c2cccc(Cl)c2)cc1 | 11 |
| CC1(C)N=C(N)N=C(N)N1c1ccc(Cl)c(Cl)c1 [CHLORCYCLOGUANIL] | 1.1 |
| CCc1nc(N)nc(N)c1-c1ccc(Cl)c(Cl)c1 [ETOPRINE] | 0.79 |
| COC(=O)c1sccc1-c1ccc(/C(C)=N/NC(N)=O)o1 | 20000 |
| CC1(C)N=C(N)N=C(N)N1OCCCOc1cc(Cl)c(Cl)cc1Cl | 1.1 |
| NC1=NCN(c2ccccc2)C(N)=N1 | 85 |
| C/N=C(\S)NNC(=O)c1cccn(Cc2cccc(Cl)c2)c1=O | 900 |
| Nc1nc(N)c(-c2ccc(Cl)cc2)c(CCCc2ccccc2)n1 | 0.74 |
| Nc1ncc(-c2ccccc2)c(N)n1 | 100 |
| CC1(C)N=C(N)N=C(N)N1c1ccc(F)cc1 | 170 |
| CCc1nc(N)nc(N)c1-c1ccc(C(C)(C)C)cc1 | 0.77 |
| CCc1nc(N)nc(N)c1-c1ccccc1 | 100 |
| Cc1nc(N)nc(N)c1-c1ccccc1 | 110 |
| N/N=C(\S)Nc1ccc(OCc2ccccc2)cc1 | 2000 |
| CCOc1c(Br)cc(-c2c(N)nc(N)nc2CC)cc1Br | 37 |
| Cc1[nH]c(N)cc2nc3ccccc3c1-2 | 2300 |
